Measured values from US7122651B1, “Nucleic acid molecules encoding opioid growth factor receptors” (priority 1998, dated 2006).

What was measured:
[1] = biological target: T1, nuclear homogenates of human pancreatic tumor cells (PANC-1) (Homo sapiens, UniProt Q9NZT2); assay: Competition for binding of [^3H]-[Met^5]-enkephalin in PANC-1 nuclear homogenates; conditions: for competition for [^3H][Met^5]-enkephalin binding: 1 or 2 nM radioligand
T1 construct: host or cells: PANC-1; nuclear (P1) homogenates, and P2, P3 and S3 fractions in the fractionation study
T1 sequence (Q9NZT2 1-677): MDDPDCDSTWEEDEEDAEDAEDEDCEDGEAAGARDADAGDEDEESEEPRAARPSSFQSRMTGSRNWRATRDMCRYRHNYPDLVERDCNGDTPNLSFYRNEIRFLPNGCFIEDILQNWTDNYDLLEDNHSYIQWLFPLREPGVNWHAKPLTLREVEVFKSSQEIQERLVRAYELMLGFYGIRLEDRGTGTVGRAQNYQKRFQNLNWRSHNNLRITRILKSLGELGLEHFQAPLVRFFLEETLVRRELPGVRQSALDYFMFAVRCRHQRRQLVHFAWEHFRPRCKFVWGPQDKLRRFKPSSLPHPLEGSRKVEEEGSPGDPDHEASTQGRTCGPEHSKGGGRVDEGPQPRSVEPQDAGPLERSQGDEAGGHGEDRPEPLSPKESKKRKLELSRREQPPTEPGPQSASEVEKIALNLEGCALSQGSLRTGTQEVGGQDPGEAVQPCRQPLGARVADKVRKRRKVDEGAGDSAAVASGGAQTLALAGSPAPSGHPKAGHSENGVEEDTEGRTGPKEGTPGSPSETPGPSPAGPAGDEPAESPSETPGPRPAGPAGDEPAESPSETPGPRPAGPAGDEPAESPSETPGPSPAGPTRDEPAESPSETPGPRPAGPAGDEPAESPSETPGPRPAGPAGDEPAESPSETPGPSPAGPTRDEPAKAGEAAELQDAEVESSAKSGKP
Protocol: Each concentration was run in triplicate and every compound was tested twice.
(§1) Analysis and statistics. Receptor binding data were analyzed with either the Lundon I (Saturation Isotherm Binding Analysis) computer program (Lundon Software, Cleveland, Ohio) or GraphPad Prism software. Both programs utilize nonlinear least-squares regression. Binding isotherms and Scatchard plots were computed directly by the programs. […] Comparisons of Bmax and Kd values were made using analysis of variance and posthoc Newman-Keuls tests.
Competition experiments using 1 or 2 nM [^3H]

[2] = system: IEC-6 rat small intestine epithelial cell line; assay: Cell number in IEC-6 cultures (trypan blue, hemacytometer); format: cell-based; conditions: 10^−6 M, 48 hr of exposure, IEC-6 cells
Protocol: FIG. 6 depicts histogram of cell number in cultures of IEC-6 rat intestinal epithelial cells treated for 48 hr with either sterile water (CO), 10^−6 M NTX, 10^−6 M 23-mer S-ODN (antisense), or scrambled oligoprobe (scrambled). Cells (5×10^3) were plated, and compounds and fresh media were added 24 hr and 48 hr later. After 72 hr in culture, cells were trypsinized, stained with trypan blue, and counted with a hemacytometer.
The IEC-6 rat small intestine epithelial cell line (American Type Tissue Culture Collection, Manassas, Va.) were grown in Dulbecco's medium supplemented with 10% fetal calf serum. For experiments, 5×10^3 cells/well in a 24-well plate were seeded and, 24 hr later, 10^−6 M concentrations of the antisense or the scrambled S-ODN were added. Some wells were exposed to 10^−6 NTX or an equivalent volume of sterile water. Media, S-ODNs, or drugs were changed daily. After 72 hr in culture, cells were trypsinized, stained with trypan blue, and counted with a hemacytometer; 3 wells/treatment group were assessed. The data were evaluated with ANOVA, and subsequent comparisons were made with the Newman-Keuls tests.

[3] = system: SK-N-AS human neuroblastoma cell line; assay: Cell number in SK-N-AS cultures (trypan blue, hemacytometer); format: cell-based; conditions: 10^−6 M, SK-N-AS cells
Protocol: FIG. 10 depicts histogram of cell number in cultures of SK-N-AS human neuroblastoma cells treated for 48 hr with either sterile water (CO), 10^−6 M NTX, 10^−6 M S-ODN, or scrambled oligonucleotide. Cells (6×10^3) were plated and compounds and fresh media added 24 hr and 48 hr later. After 72 hr in culture, cells were trypsinized, stained with trypan blue, and counted with a hemacytometer.
To study the function of the isolated cDNA with respect to regulation of cell growth, a 23-mer antisense S-ODN (nuclease-resistant phosphorothioate; Oligo, Etc., Bethel, Me.) targeted against a sequence containing the translation initiation site of the OGF binding protein was designed: 5′-[…]-3′ (antisense, SEQ ID NO: 17). A scrambled (control) S-ODN was also designed: 5′-[…]-3′ (SEQ ID NO: 18).
The SK-N-AS human neuroblastoma cell line (American Type Tissue Culture Collection, Manassas, Va.) was grown in Dulbecco's medium supplemented with 10% fetal calf serum. For experimentation, 6×10^3 cells/well in a 24-well plate were seeded and, 24 hr later, 10^−6 M concentrations of the antisense or the scrambled S-ODN was added. […] After 72 hr in culture, cells were trypsinized, stained with trypan blue, and counted with a hemacytometer. Data from the antisense experiments were evaluated with ANOVA, and subsequent comparisons made with the Newman-Keuls tests.

[4] = biological target: T2, PANC-1 nuclear (P1) homogenates (Homo sapiens, UniProt Q9NZT2); assay: Binding of [^3H]-[Met^5]-enkephalin to PANC-1 nuclear homogenates (saturation and characterization); conditions: for Binding, of the optimal binding at 22° C.: 2 nM ligand
T2 construct: host or cells: PANC-1; nuclear (P1) homogenates, and P2, P3 and S3 fractions in the fractionation study
T2 sequence (Q9NZT2 1-677): T1 sequence (Q9NZT2 1-677)
Protocol: (§2) Cell culture. PANC-1, Mia PaCa-2, BxPC-3, and Capan-1 cell lines were obtained from the American Type Culture Collection (Manassas, Va.). […] Panc-1 cells between passages 62–74 were used for the characterization studies.
(§3) Preparation of protein fractions. Cell cultures were harvested by scraping of the flasks, and cells were pelleted by centrifugation. The washed pellet was homogenized (Polytron, setting 5, 2×10 sec) in a 1:20 (wt/vol) solution of cold 50 mM Tris-HCl with 0.1 mg/ml bacitracin, 1 mg/ml leupeptin, 6 nM thiorphan, 1 mM EGTA, and 3.5 mM PMSF (pH 7.4) at 4° C.; this buffer is termed Tris/all.
(§4) Receptor binding assays. Homogenates of nuclear protein were diluted with Tris/all to the appropriate protein concentration and incubated at room temperature (22° C.) for 20 min to remove endogenous peptides. Aliquots of protein were resuspended to 0.95 ml and incubated with agitation with radioactive ligand. […] The final volume of the incubation mixture was 1 ml. Isotope incubation was terminated by rapid filtration through Whatman GF-B filters under vacuum pressure with a Brandel Cell Harvester. Filters were rinsed with ice-cold Tris/all buffer, dried at 60° C. for 1 hr and counted by liquid scintillation spectrometry (Beckman LS-2800). […] Duplicate tubes of homogenates were assayed for each concentration utilized. Protein concentrations were determined by the BioRad method with g-globulin as the standard.
as §1

[5] = biological target: rat OGFr 12-GST fusion protein (cDNA clone #12); assay: Saturation binding of [^3H]-[Met^5]-enkephalin to purified rat OGFr GST fusion protein; conditions: mean±SE, 6 assays, 22° C., 30 min, read-out: binding affinity (Kd)
Chain of rat OGFr 12-GST fusion protein (cDNA clone #12) (as listed by the source): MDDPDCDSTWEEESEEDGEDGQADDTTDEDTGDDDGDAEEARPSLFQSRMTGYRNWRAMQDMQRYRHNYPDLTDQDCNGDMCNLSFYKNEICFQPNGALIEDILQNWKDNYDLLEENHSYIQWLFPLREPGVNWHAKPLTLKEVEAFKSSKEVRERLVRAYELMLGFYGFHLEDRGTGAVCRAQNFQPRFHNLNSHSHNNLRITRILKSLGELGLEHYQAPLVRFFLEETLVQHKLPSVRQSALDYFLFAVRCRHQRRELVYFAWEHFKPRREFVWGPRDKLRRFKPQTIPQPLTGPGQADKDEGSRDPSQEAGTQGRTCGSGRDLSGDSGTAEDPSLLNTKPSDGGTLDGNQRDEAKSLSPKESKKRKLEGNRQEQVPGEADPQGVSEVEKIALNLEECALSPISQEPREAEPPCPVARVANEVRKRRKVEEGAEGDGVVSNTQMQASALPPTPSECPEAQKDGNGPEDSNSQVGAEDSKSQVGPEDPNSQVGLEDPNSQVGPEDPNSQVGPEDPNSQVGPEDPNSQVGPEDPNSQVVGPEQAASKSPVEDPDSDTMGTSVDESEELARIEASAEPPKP
Protocol: Fusion proteins (80–120 ng/tube) were incubated for 30 min with shaking at 22° C. […] Binding was terminated by filtering homogenates through Whatman GF/B filters. Saturation isotherms were plotted using GraphPad Prism software (GraphPad Software Inc., San Diego, Calif.).

[6] = biological target: nuclear-enriched fraction of human placenta; assay: Binding of radiolabeled [Met^5]-enkephalin to human placenta; conditions: one-site model, read-out: binding affinity (Kd)
From the text: A one-site model of binding was noted.

[7] = biological target: PANC-1 subcellular fractions (P1, P2, P3, S3) (Homo sapiens, UniProt Q9NZT2)
Protocol: For subcellular fractionation studies, the supernatant of P1 was centrifuged at 39,000× g for 30 min to obtain a plasma membrane pellet (P2). The P2 supernatant was centrifuged overnight (100,000× g), resulting in a microsomal pellet (P3) and soluble supernatant (S3). All fractions were inspected for purity by phase-contrast microscopy.
as §4
Sucrose gradient centrifugation was performed to separate the nuclear (P1), membrane (P2), microsomal (P3), and soluble (S3) fractions (Table II).

BxPC-3 nuclear fraction = BxPC-3 nuclear fraction (Homo sapiens, UniProt Q9NZT2); conditions: BxPC-3, log phase
Protocol: as §2, §3, §4

Capan-1 nuclear fraction = Capan-1 nuclear fraction (Homo sapiens, UniProt Q9NZT2); conditions: Capan-1, log phase
Protocol: as §2, §3, §4

[8] = biological target: MIA PaCA-2 nuclear fraction (Homo sapiens, UniProt Q9NZT2); conditions: MIA PaCA-2, log phase
Protocol: as §2, §3, §4

[9] = biological target: Xenografts of Capan-1 growing in nude mice (Homo sapiens, UniProt Q9NZT2); conditions: Capan-1 xenograft, harvested 40 days after inoculation
Protocol: as §4

[10] = biological target: human pancreatic cancer tissue (Homo sapiens, UniProt Q9NZT2)
Protocol: as §4
Receptor binding assays were performed as stated above.

[11] = biological target: SCCHN enriched nuclear preparations (Homo sapiens, UniProt Q9NZT2)
From the text: (§5) Human tissue samples were representative of a variety of squamous cell carcinomas, including specimens from the oral cavity-larynx, and regional metastases. Normal mucosal specimens were obtained during uvu-lopalatopharyngoplasty.

[12] = biological target: normal mucosa enriched nuclear preparations (Homo sapiens, UniProt Q9NZT2); conditions: normal epithelium
From the text: as §5

normal human pancreas = normal human pancreas (Homo sapiens, UniProt Q9NZT2); conditions: 3 normal specimens
Protocol: Normal tissues (as determined from histological assessment) were obtained from two females and a person. […] Samples were collected and frozen in liquid nitrogen within 1 hr of surgery. Receptor binding assays were performed as stated above.

[13] = optimal conditions, P1 fraction

Q: “Dynorphin A1-8 (YGGFLRRI) [κ receptor ligand]” was tested. Which “competition for [^3H][Met^5]-enkephalin binding” value (shortened to “competition”) [1] did it give?
A: little or no competition

Q: [Met^5]-enkephalin was tested. Which “ability to displace [^3H][Met^5]enkephalin relative to the next ranking compound” value [1] did it give?
A: 100 fold

Q: With `O=C1CC[C@@]2(O)[C@H]3Cc4ccc(O)c5c4[C@@]2(CCN3CC2CC2)[C@H]1O5` [NTX, naltrexone] as the compound, how does the “elevation of cell number from control cultures” value (“elevation of cell number” below) [2] read?
A: 223%

Q: What about the “growth relative to control cultures” value ([3]; 48 hr) of the same compound?
A: increased cell growth from control values

Q: β-endorphin was tested. Which IC50/Kd ([1]; competition with [^3H]-[Met^5]-enkephalin, at least 2 independent assays) did it give?
A: >10^−4

Q: For `Nc1nc2c(ncn2[C@@H]2O[C@H](COP(=O)(O)OP(=O)(O)NP(=O)(O)O)[C@@H](O)[C@H]2O)c(=O)[nH]1` [GppNHp, guanylylimidodiphosphate], which “effect on binding of [^3H]-[Met^5]-enkephalin” value ([4]; 50, 100, or 200 μM) is on record?
A: not markedly altered

Q: How did the “competition” value [1] turn out when `CC[C@]12CCN(CC3CC3)[C@H](C(=O)c3ccc(O)cc31)[C@@H]2C` [EKC, ethylketocyclazocine] was run?
A: little or no competition

Q: For [^3H]-[Met^5]-enkephalin, which Kd [5] is on record?
A: 2.8 ± 1.1 nM

Q: What about the Kd [6] of the same compound?
A: 12.3 ± 3.9 nM

Q: And the “time to reach binding equilibrium” value ([4]; 22° C.)?
A: 60 to 75 min

Q: And the Bmax ([4]; PANC-1, Table IV, at least 3 independent assays)?
A: 28.9 ± 6.2 fmol/mg

Q: And the Bmax ([4]; PANC-1 Confluent, 5 days in culture)?
A: 7.8 ± 0.0 fmol/mg protein

Q: And the Bmax ([4]; PANC-1 Log phase, 3 days in culture)?
A: 20.7 ± 1.2 fmol/mg protein

Q: And the Bmax ([4]; PANC-1 Post-confluent, 7–8 days in culture)?
A: 35.6 ± 0.3 fmol/mg protein

Q: What about the “effect of length of time in culture on affinity” value ([4]; PANC-1 log phase, confluent, post-confluent) of the same compound?
A: no effect

Q: And the “reduction of binding capacity in contrast to post-confluent cells” value ([4]; confluent cultures)?
A: 78%

Q: And the “Binding, of the optimal binding at 22° C.” value ([4]; incubation at 0° C.)?
A: 12%

Q: What about the “Binding, of the optimal binding at 22° C.” value ([4]; incubation at 37° C.) of the same compound?
A: 21%

Q: And the “reduction of binding capacity in contrast to post-confluent cells” value ([4]; log-phase cultures)?
A: 42%

Q: And the “Nonspecific binding, of the total binding” value [4, 13]?
A: ~52%

Q: What about the “maximal binding capacity (Bmax)” value [4, 13] of the same compound?
A: 36.4±4.1 fmol/mg protein

Q: What about the Bmax ([7]; P1 fraction, Nuclear) of the same compound?
A: 21.8±4.8 fmol/mg protein

Q: What about the “specific and saturable binding” value ([7]; fractions enriched in P2, P3, or S3) of the same compound?
A: No specific and saturable binding

Q: What about the Bmax (BxPC-3 nuclear fraction) of the same compound?
A: 25.5 ± 9.7 fmol/mg

Q: And the Bmax (Capan-1 nuclear fraction)?
A: 22.7 ± 9.5 fmol/mg

Q: What about the Bmax [8] of the same compound?
A: 11.9 ± 1.5 fmol/mg

Q: And the Bmax [9]?
A: 4.2±1.1 fmol/mg protein

Q: And the binding recorded ([10]; 3 further specimens)?
A: non-specific and non-saturable binding

Q: What about the Bmax ([10]; specimens from 3 patients) of the same compound?
A: 6.6±1.2 fmol/mg protein

Q: And the “Binding capacity (Bmax)” value ([11]; neoplastic specimens)?
A: 13.6±1.9 fmol/mg protein

Q: What about the “Bmax of neoplastic specimens less than normal epithelium” value ([11]; p<0.01) of the same compound?
A: 6 fold

Q: What about the “Binding capacity (Bmax)” value [12] of the same compound?
A: 80.8±32.8 fmol/mg protein

Q: And the Bmax (normal human pancreas)?
A: 46.7±27.8 fmol/mg protein

Q: “5′-GGTCGTCCATGCTCGGCTAGAAT-3′ (DNA, all phosphorothioate, methylation of C not given here) [antisense S-ODN (SEQ ID NO: 17)]” was tested. Which “elevation of cell number” value ([3]; 48 hr of exposure) did it give?
A: 60%

Q: For `C[C@@H](NC(=O)[C@@H](N)Cc1ccc(O)cc1)C(=O)NCC(=O)N(C)[C@@H](Cc1ccccc1)C(=O)NCCO` [DAMGO, [D-Ala^2, N-Me-Phe^4, Gly^5-ol]-enkephalin], which “competition” value [1] is on record?
A: little or no competition

Q: How did the “elevation of cell number” value [2] turn out when “5′-GACTCAGGGACTTAGCTTCATCC-3′ (DNA, all phosphorothioate, methylation of C not given here) [antisense S-ODN (SEQ ID NO: 15)]” was run?
A: 294%

Q: DPDPE [[D-Pen^2, Pen^5]-enkephalin] was tested. Which “competition” value [1] did it give?
A: little or no competition
